The record followed here is publication PMC7882986, “Simultaneous blocking of the pan‐RAF and S100B pathways as a synergistic therapeutic strategy against malignant melanoma” (Journal of Cellular and Molecular Medicine, 2020).

Structures are written as SMILES.

This experiment relates to p53 transcription activity. Put plainly: p53 luciferase reporter assay in A375 cells. The experiment is classed as cell-based, human. The note with it: 0.5 μM alone, 12 h. A general note: A reporter such as luciferase makes a cellular process visible.

Description: Transient transfection: A375 cells were seeded in a culture dish overnight before transfection. p53-luciferase plasmid, and TurboFect reagent were mixed together in Dulbecco's modified eagle medium (DMEM) without FBS and the resulting solution was incubated for 20 min at 37 °C. The mixture was then added to the A375 cells in the wells. The cells were incubated for 12 h at 37 °C in a CO2 incubator before use.
Briefly, A375 cells were seed at a density of 6 × 10^5 cell in a culture dish overnight. The cells were co-transfected with p53-luciferase plasmid in serum-free DMEM medium using TurboFect Transfection Reagent. Then, the transfected cells were seeded in a 24-well plate and treated with an indicated concentration of 1 in 1% FBS medium for 6h. The transfected cells were lysed by the addition of 160 μL Passive Lysis Buffer (PLB). 50 μL of the cell lysates were transferred to a 96-well white plate followed by adding 50 μL of luciferase reporter reagent (LAR). The transcriptional activity was determined by measuring the activity of firefly luciferase in SpectraMax M5 microplate reader (Molecular Devices).

Turning to `CCCS(=O)(=O)Nc1ccc(F)c(C(=O)c2c[nH]c3ncc(-c4ccc(Cl)cc4)cc23)c1F` [vemurafenib, reference compound], the “p53 transcription activity, single agent” value was “negligible effect”.
